{"source": "patent US10966996B2", "about": "“Glechoma longitube extract, preparation method for same, and use thereof in sugar reduction, weight loss, and lipid reduction” (SHANGHAI INSTITUTE OF MATERIA MEDICA CHINESE ACADEMY OF …, priority 2014, dated 2021)", "assay_type_in_all_cases": "biochemical", "key": {"[1]": {"molecular_target": "T1, hDGAT1 (Homo sapiens, UniProt O75907)", "T1 construct": "made in house; host or cells: insect cells", "T1 sequence (O75907 1-488)": "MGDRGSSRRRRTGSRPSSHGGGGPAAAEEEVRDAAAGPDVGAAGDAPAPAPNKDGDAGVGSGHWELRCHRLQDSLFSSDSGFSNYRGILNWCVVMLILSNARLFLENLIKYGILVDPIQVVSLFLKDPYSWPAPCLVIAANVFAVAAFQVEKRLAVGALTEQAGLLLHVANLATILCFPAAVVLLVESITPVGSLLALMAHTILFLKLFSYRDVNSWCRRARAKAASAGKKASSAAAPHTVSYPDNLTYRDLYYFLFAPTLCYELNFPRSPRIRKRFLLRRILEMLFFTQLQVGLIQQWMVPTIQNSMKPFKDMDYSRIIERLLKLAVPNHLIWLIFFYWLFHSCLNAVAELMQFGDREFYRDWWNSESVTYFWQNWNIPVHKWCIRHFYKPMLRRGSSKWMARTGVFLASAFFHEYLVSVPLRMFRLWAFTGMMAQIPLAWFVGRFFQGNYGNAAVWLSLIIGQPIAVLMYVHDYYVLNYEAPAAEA", "assay": "inhibitory activity against hDGAT1 (CPM fluorescence)", "experimental": "Experimental method: (1) the effect of the extract of Glechoma longituba (Nakai) Kupr., LQC-H-1, on serum triglyceride level was evaluated in acute hypertriglyceridemic mouse model; 6-week old male C57BL/KsJ mice (Shanghai Slac Laboratory Animal Company), 8 for each group, weight of 20±2 g, were fed according to SPF grade operation procedure and fasted overnight for 16 hours prior to experiment. Compounds of different concentrations were intragastric administrated to each administration group of mice, respectively. Equal volume of water was given to control group and blank group of mice. 30 mins later, 2 g/kg olive oil was intragastric administrated to administration group and control group of mice, while equal volume of water was given to blank group of mice. 2 hours later, blood was collected from orbital vein of each group of mice for the separation of serum, and concentration of triglyceride in the serum was measured; (2) inhibitory activity of the individual compounds separated from the extract of Glechoma longituba (Nakai) Kupr., LQC-H-1, against diacylglycerol acyltransferase (DGAT): human derived DGAT1 obtained by expression and purification with insect cells were pre-incubated together with the compounds, substrate diacylglycerol was added to initiate the reaction in the presence of coenzyme A, fluorescence signal generated by the combination of produced sulfydryl and CPM was measured, and the inhibitory activity of the compound against DGAT was calculated according to the following formula: Inhibition rate %=(OD blank−OD compound)/(OD blank−OD negative control)*100%\n(§1) OD compound, OD blank, and OD negative control represented the fluorescence values from a compound well, a blank well, and a negative control well free of DGAT1 enzyme, and the concentrations of the compounds when the enzyme activity inhibition rate (%) reached 50% were set as IC50 value; (3) inhibitory activity of the individual compounds separated from the extract of Glechoma longituba (Nakai) Kupr., LQC-H-1, against pancrelipase: substrate p-Nitrophenyl acetate (Sigma, USA) was formulated to 1.35 mM with phosphate buffer (25 mM, pH 6.8); porcine pancrelipase (Sigma) was formulated to 10 mg/ml with phosphate buffer; brominated eneyne compounds were formulated to solutions of different concentrations with phosphate buffer. Then, 50 μl of 1.35 mM p-Nitrophenyl acetate (Sigma, USA) solution and 10 μl of test compounds of different concentrations were sequentially added into a 96-well plate and pre-incubated at 37° C. for 5 mins. Finally, 50 μl of 10 mg/ml pancrelipase (EC 3.1.1.3, Sigma, USA) was added and mixed. The reaction proceeded at 37° C. for further 20 mins Absorbance of each well was measured at 492 nm. The inhibition rates (%) of the test samples against pancrelipase were calculated based on the absorbance at 492 nm. The concentrations of the compounds when then enzyme activity inhibition rate (%) reached 50% was set as IC50 value. The inhibition rate (%) could be calculated according to the following formula: Inhibition rate (%)=[(A−B)−(C−D)]/(A−B)×100"}, "[2]": {"molecular_target": "T2, porcine pancrelipase (Sus scrofa, UniProt P00591)", "T2 construct": "purchased Sigma", "T2 sequence (P00591 1-450)": "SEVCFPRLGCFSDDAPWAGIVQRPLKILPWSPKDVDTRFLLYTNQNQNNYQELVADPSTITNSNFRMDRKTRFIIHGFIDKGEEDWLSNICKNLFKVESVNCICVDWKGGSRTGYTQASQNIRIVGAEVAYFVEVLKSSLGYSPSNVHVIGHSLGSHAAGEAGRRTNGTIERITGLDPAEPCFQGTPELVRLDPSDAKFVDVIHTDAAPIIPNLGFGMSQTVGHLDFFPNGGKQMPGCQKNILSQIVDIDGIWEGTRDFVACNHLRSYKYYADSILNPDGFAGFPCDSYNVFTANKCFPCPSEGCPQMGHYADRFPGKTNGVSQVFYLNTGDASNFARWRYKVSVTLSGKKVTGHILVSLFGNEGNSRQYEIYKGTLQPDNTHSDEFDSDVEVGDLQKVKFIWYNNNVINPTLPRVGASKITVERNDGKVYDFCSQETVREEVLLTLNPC", "assay": "inhibitory activity against pancrelipase (p-Nitrophenyl acetate substrate)", "conditions": "10 μM", "from_the_text": "as §1\nIn the above formula, A, B, C, and D represented the absorbance of a blank well after the reaction, the absorbance of a blank well prior to the reaction, the absorbance of a sample well after the reaction, and the absorbance of a sample well prior to the reaction."}, "[3]": {"molecular_target": "T3, glucose oxidase (GOX) (Homo sapiens, UniProt Q9UJM8)", "T3 sequence (Q9UJM8 1-370)": "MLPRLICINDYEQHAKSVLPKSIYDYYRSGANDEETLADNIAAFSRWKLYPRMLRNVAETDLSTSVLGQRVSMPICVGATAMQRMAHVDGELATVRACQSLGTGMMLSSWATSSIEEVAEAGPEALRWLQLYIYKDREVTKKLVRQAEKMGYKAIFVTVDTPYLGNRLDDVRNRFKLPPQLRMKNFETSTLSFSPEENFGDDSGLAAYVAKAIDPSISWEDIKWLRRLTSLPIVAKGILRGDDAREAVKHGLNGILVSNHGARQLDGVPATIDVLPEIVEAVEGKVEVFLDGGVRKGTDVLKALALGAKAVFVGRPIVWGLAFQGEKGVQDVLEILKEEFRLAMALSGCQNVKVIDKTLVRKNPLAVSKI", "assay": "inhibitory activity against glucose oxidase (GOX), enzyme coupling method with glycolic acid substrate", "set-up": "Vmax: unit not given here", "experimental": "Mechanism of experiment: enzyme coupling method utilizes peroxidase (POD) and substrates thereof to react with generated H2O2 to produce colored products so as to determine the catalytic reaction rate of glucose oxidase. POD catalyzes H2O2 to react with phenol and 4-amino antipyrine to produce brown-red quinone substances.\nExperimental method: reagents were added according to the table below; the reaction was immediately initiated upon the final addition of substrate glycolic acid; the kinetic course of the reaction was detected by microplate reader; the enzyme activity was represented by Vmax, maximum reaction velocity.\nThe measurement results were fitted by Graphpad Prism 5.0 to calculate IC50 values."}}}
{"smiles": "O=C(Nc1ccccc1)Nc1ccc(-c2ccc(C(=O)[C@@H]3CCC[C@H]3C(=O)O)cc2)cc1", "note": "[A 922500, reference compound]", "values": [{"measurement": "Inhibition rate (%) (10 μM) against hDGAT1", "setting": "[1]; 10 μM", "result": 83.36, "unit": "%"}, {"measurement": "Inhibition rate (%) (50 μM) against hDGAT1", "setting": "[1]; 50 μM", "result": 97.51, "unit": "%"}]}
{"smiles": "CCCCCCCCCCC[C@@H](C[C@@H]1OC(=O)[C@H]1CCCCCC)OC(=O)[C@H](CC(C)C)NC=O", "note": "[Olistat, reference compound]", "values": [{"measurement": "Inhibition rate % (10 μM) against pancrelipase", "setting": "[2]", "result": 83.96, "unit": "%"}]}
{"smiles": "O=c1c(O)c(-c2ccc(O)c(O)c2)oc2cc(O)cc(O)c12", "note": "[Quercetin, reference compound]", "values": [{"measurement": "Vmax", "setting": "[3]; 0.1 μM", "result": "34.68 ± 0.06"}, {"measurement": "inhibition at 0.1 µM", "setting": "[3]; 0.1 μM, read-out: Inhibition rate", "result": "2.82 ± 0.16", "unit": "%"}, {"measurement": "Vmax", "setting": "[3]; 0.3 μM", "result": "34.66 ± 0.20"}, {"measurement": "inhibition at 0.3 µM", "setting": "[3]; 0.3 μM, read-out: Inhibition rate", "result": "2.87 ± 0.57", "unit": "%"}, {"measurement": "Vmax", "setting": "[3]; 1 μM", "result": "33.85 ± 0.55"}, {"measurement": "inhibition at 1 µM", "setting": "[3]; 1 μM, read-out: Inhibition rate", "result": "5.12 ± 1.53", "unit": "%"}, {"measurement": "Vmax", "setting": "[3]; 3 μM", "result": "30.21 ± 0.12"}, {"measurement": "inhibition at 3 µM", "setting": "[3]; 3 μM, read-out: Inhibition rate", "result": "15.3 ± 0.32", "unit": "%"}, {"measurement": "Vmax", "setting": "[3]; 10 μM", "result": "26.55 ± 0.15"}, {"measurement": "inhibition at 10 µM", "setting": "[3]; 10 μM, read-out: Inhibition rate", "result": "25.6 ± 0.41", "unit": "%"}, {"measurement": "Vmax", "setting": "[3]; 30 μM", "result": "16.54 ± 0.12"}, {"measurement": "inhibition at 30 µM", "setting": "[3]; 30 μM, read-out: Inhibition rate", "result": "53.66 ± 0.34", "unit": "%"}, {"measurement": "Vmax", "setting": "[3]; 100 μM", "result": "−1.40 ± 8.87"}, {"measurement": "inhibition at 100 µM", "setting": "[3]; 100 μM, read-out: Inhibition rate", "result": "104 ± 24.9", "unit": "%"}, {"measurement": "IC50", "setting": "[3]; fitted by Graphpad Prism 5.0", "result": 21, "unit": "µM"}]}
